How the values were obtained:
[1] = tested on: conditionally male sterile tobacco plants; experiment: Foliar spray on conditionally male sterile transgenic tobacco (TA29-deacetylase plus plastocyanin-PAT); format: in vivo
Procedure: Tobacco plant material is transformed, via Agrobacterium, with vector and transgenic plants are regenerated in a similar manner to that described in the previous example. The plants produced are self-fertile but are conditionally male sterile. Seeds of the T1 generation are planted out into soil. Once plantlets have grown to a sufficient size they are tested by PCR for the presence of transgene. PCR positive plants are transferred to the greenhouse. These plants are fully fertile in the absence of exogenously applied herbicide. A subset of these putatively conditionally sterile T1 plants, or, alternatively plantlets of T0 ‘events’ (direct regenerants from transformation) are treated with phosphinothricin in various amounts and at varying growth stages. Where To plants are treated they are vegetatively cloned so that untreated siblings of the events are set aside for seed production. […] For example, phosphinothricin is applied as a foliar spray, prior to or during the early stages of flower formation, at rates usually between 0.25 and 20 kg/ha.
Pollen from the treated plants is collected and viability is tested. […] Pollen collected from some of the treated plants is tested and found to be malformed and non-viable. […]

[2] = tested on: conditionally female sterile tobacco plants; experiment: Foliar spray on conditionally female sterile transgenic tobacco (stig1-deacetylase plus plastocyanin-PAT); format: in vivo, Nicotiana tabacum var. Samsun
Procedure: Tobacco leaf discs are transformed with the recombinant binary vectors using methods similar to those described in Horsch et al (1985) Science, 227, 1229-1231. Many variations of the method may be used. The binary vector can be transformed into, for example, Agrobacterium tumefaciens strain LBA 4404 using the freeze thaw method of transformation. Tobacco transformation and whole plant regeneration is performed using Nicotiana tabacum var. Samsun according to protocols described by Draper et al (Plant Genetic Transformation, Blackwell Sci. Pub. 1989). Transformation events are selected on MS-media containing kanamycin or other suitable antibiotic. Alternatively selection is made on phosphinothricin. The presence of integrated transgenes is confirmed by PCR. Plants are regenerated and allowed to reach maturity and selfed on to produce seed. Northern and/or Western analysis is used to confirm tissue-specific expression of the deacetylase. The plants are self-fertile but have the condition of conditional female sterility. Seeds of the T1 generation are planted out. Once plantlets have grown to a sufficient size they are tested by PCR for the presence of transgene. PCR positive plants are transferred to the greenhouse. These plants are fully fertile in the absence of exogenously applied phosphinothricin. A subset of these (putatively) conditionally sterile plants are treated with DL-phosphiothricin or L phosphinothricin in various amounts and at varying growth stages. Such treatments are carried out on the T1 plants confirmed as PCR positive for the deacetylase gene, or, equally, such treatments are carried out directly on plants of the To generation (which are vegetatively cloned so that untreated clones of each event may be set aside for seed production). […] For example, phosphinotricin is applied as a foliar spray, prior to or during the early stages of flower formation, at rates usually between 0.25 and 20 kg/ha. Undamaged appearing plants are selected and pollen from the treated plants is collected and viability is tested. […]

[3] = tested on: wheat plants with PAT gene under plastocyanin promoter region; experiment: Application to wheat plants expressing PAT under a plastocyanin promoter region; format: in vivo; conditions: rates of at least 2 kg/ha
Text: Firstly, the PAT gene is expressed under operable control of a plastocyanin promoter region so that it is expressed substantially only in the green tissues of the plant. […] Thus a critical feature of the constructs described in the foregoing examples which are used to provide the plants of the current example is that the PAT gene which provides the resistance trait is expressed under operable control of a promoter region which provides for expression in substantially only the green tissues. A characteristic of such a useful promoter region is that it should express PAT in such a way that it protects adequately all the […] floral tissues from foliarly applied DL phosphinothricin whilst, at the same time, providing only a minimal level of PAT expression in the floral tissue itself and especially low in those parts targeted for conditional sterility. With PAT expressed under operable control of the barley plastocyanin promoter region this condition appears to be met since substantially all of the L-phosphinothricin which is sprayed enters via the leaves is intercepted and converted to non-phytotoxic N-acetyl-L-phosphinothricin before it translocated to developing floral tissues. […]

[4] = tested on: transgenic plants comprising a PAT gene under operable control of the plastocyanin promoter region; experiment: Foliar spray on control transgenic tobacco with PAT gene under plastocyanin promoter, no deacetylase gene; format: in vivo, Nicotiana tabacum var. Samsun; conditions: rates in excess of 2 kg/ha; no deacetylase co-expressed

| SMILES | pollen shed and viability after treatment ([1]; foliar spray prior to or during early flower formation, rates usually between 0.25 and 20 kg/ha) | female fertility of treated male infertile plants ([1]; pollinated with pollen from untreated non-transgenic or conditionally female-sterile tobacco) | seed production after treatment ([2]; foliar spray prior to or during early flower formation, selected lines) | vegetative damage (appearance of treated plants) ([2]; foliar spray prior to or during early flower formation, treatment rates of up to 5 kg/ha) | viable pollen production after treatment ([2]; same treatment conditions as for seed production) | reproductive tolerance to the herbicide [3] | reproductive tolerance to the herbicide [4] |
| --- | --- | --- | --- | --- | --- | --- | --- |
| CP(=O)(O)CC[C@H](N)C(=O)O (racemic) [phosphinothricin] | no or relatively little pollen and/or pollen which is not viable | remain female fertile | relatively little or no seed | relatively undamaged | near normal levels of viable pollen | – | – |
| CP(=O)(O)CCC(N)C(=O)O (stereo not drawn) [DL PPT, DL phosphinothricin] | – | – | – | – | – | substantially reproductively tolerant | substantially complete reproductive tolerance |
